From patent publication US7622611B2, “Pentafluorosulfanylbenzoylguanidines, process for their preparation, use as a medicament or diagnostic aid, and medicament comprising same” (Sanofi-Aventis Deutschland GmbH, priority 2003, dated 2009)

Experiments:
human NHE-1 = target: T1, human NHE-1 (Homo sapiens, UniProt P19634); test: NHE-1 inhibition, FLIPR assay measuring pHi recovery in transfected cell lines; format: cell-based; conditions: transfected LAP-1 cell line expressing human NHE-1, BCECF pHi recovery, read-out: NHE1 inhibition IC50
T1 construct: expressed in transfected cells; host or cells: LAP-1 (parental line without endogenous NHE activity), G418 selection
T1 sequence (P19634 whole entry): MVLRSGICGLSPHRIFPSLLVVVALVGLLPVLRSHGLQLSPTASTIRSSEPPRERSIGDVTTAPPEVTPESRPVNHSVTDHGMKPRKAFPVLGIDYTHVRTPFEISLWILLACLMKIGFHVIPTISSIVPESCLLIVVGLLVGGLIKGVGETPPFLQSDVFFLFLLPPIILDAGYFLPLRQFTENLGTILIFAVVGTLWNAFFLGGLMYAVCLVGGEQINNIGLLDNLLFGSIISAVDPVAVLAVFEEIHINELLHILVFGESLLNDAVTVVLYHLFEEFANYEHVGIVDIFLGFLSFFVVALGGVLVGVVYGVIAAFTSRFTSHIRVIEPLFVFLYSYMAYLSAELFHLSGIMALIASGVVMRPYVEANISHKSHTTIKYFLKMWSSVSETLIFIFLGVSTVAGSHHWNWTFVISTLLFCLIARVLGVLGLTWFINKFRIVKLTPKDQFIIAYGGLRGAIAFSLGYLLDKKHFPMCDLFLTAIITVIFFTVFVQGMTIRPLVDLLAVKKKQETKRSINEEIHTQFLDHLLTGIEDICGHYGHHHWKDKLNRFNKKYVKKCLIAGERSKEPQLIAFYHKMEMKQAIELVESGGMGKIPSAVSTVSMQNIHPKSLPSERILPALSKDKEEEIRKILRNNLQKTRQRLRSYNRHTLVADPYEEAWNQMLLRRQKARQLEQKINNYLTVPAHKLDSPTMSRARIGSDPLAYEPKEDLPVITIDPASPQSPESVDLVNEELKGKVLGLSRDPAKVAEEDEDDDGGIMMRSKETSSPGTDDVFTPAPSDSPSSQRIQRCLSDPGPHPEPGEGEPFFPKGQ
Protocol: The inhibitory concentration IC50 for NHE-1 inhibition was determined as follows:
IC50 for NHE-1 inhibition was determined in an FLIPR assay by measurement of the pHi recovery in transfected cell lines which express human NHE-1.
The assay was carried out in an FLIPR (fluorometric imaging plate reader) with black-walled 96-well microtiter plates with clear bases.
The growth medium for the transfected cells (Iscove+10% fetal calf serum) additionally contained G418 as selection antibiotic in order to ensure the presence of the transfected sequences.
The actual assay started with the removal of the growth medium and addition of 100 μl of loading buffer per well (5 μM BCECF-AM [2′,7′-bis(carboxyethyl)-5-(and -6-)carboxyfluorescein, acetoxymethyl ester] in 20 mM NH4Cl, 115 mM choline chloride, 1 mM MgCl2, 1 mM CaCl2, 5 mM KCl, 20 mM HEPES, 5 mM glucose; pH 7.4 [adjusted with KOH]). The cells were then incubated at 37° C. for 20 minutes. This incubation led to loading of the cells with the fluorescent dye whose fluorescence intensity depends on pHi, and with NH4Cl that made the cells slightly alkaline.
The nonfluorescent dye precursor BCECF-AM is, as ester, membrane-permeable. The actual dye BCECF is not membrane-permeable but is liberated inside cells by esterases. […]

[1] = In vivo pharmacokinetics, profiling with the "n in one method" in beagle dog; conditions: for Volume of distribution: fasting male beagle dog, single i.v. bolus into jugular vein, about 1 mg/kg, both substances given together
Protocol: In vivo pharmacokinetics—profiling with the “n in one method”
The exposure data and the volumes of distribution were determined as characteristic pharmacokinetic data as follows:
The NHE-1 inhibitor of example 1 of the invention and, as reference substance, the known NHE-1 inhibitor cariporide with formula
[drawing 23] were dissolved in an aqueous, slightly acidic medium (water, pH 4, adjusted with 1M hydrochloric acid). The concentration of the aqueous formulation prepared in this way was about 1.5 mg of each substance per 1 g of solution. 10 ml of this formulation were administered as a single bolus by catheter into the jugular vein of a fasting male beagle dog (dose about 1 mg of each substance administered per kg of the dog's body weight). Blood samples were taken by means of a second catheter after 5 min, 15 min, 30 min, 1 h, 2 h, 4 h, 8 h and 24 h, and heparinized plasma was prepared by centrifugation at 1000 G in appropriate plasma tubes.
The plasma samples were worked up and, after an HPLC separation, quantified by MS/MS. The high specificity of this method permitted simultaneous determination of a plurality of substances. The exposures could be calculated using the WinNonlin computer program from the concentration-time plots (see FIG. 1) and compared with the exposure of the known NHE-1 reference substance. Since the various substances were measured in the same animal at the same time, the result was an accurate comparison of the compounds, and a ranking of the volumes of distribution was possible.
FIG. 1: concentration-time plots in the blood plasma of dogs after administration of in each case approx. 1 mg/kg of the compound of example 1 and of cariporide.

| IC50 (human NHE-1) [nM] | Exposure relative to reference substance cariporide (times higher) ([1]; dog plasma, about 1 mg/kg i.v., from concentration-time plots, FIG. 1) | Volume of distribution [1] | melting point [°C] | Detectability in plasma after 24 hours ([1]; dog plasma, 24 h after about 1 mg/kg i.v.) | Structure (SMILES) |
| --- | --- | --- | --- | --- | --- |
| 49 | 2-3 times | 1.67 l/kg of body weight | 254 to 256 | – | Cc1cc(S(F)(F)(F)(F)F)c(S(C)(=O)=O)cc1C(=O)N=C(N)N [Example 1, N-(5-Methanesulfonyl-2-methyl-4-pentafluorosulfanylbenzoyl)guanidine] |
| – | – | 2.94 l/kg of body weight | – | no longer detectable | CC(C)c1ccc(C(=O)N=C(N)N)cc1S(C)(=O)=O.CS(=O)(=O)O [cariporide, reference compound] |
